# US20100183714A1, “GASTRORESISTANT PHARMACEUTICAL DOSAGE FORM COMPRISING N-(2-(2- PHTHALIMIDOETHOXY)-ACETYL)-L-ALANYL-D-GLUTAMIC ACID (LK-423)” (priority 2004, published 2010)
# System: ulcerative changes of the ileum, caecum and colon
# Test: Antiulcerative action in vivo, DSS-induced ulcerative changes in rats
# Conditions: 75 mg/kg orally
# Description: Ulcerative changes of ileum, caecum and colon in rats were developed in five days by drinking water containing 2% of sodium dextran sulphate (DSS).
# DSS is the compound which after oral administration in an aqueous solution induces inflammatory and ulcerative changes in the mucosa of ileum, caecum and colon in animals.
# The animals were randomly assigned to the individual groups.
# From experiment day 6 onward the animals were drinking water with 1% DSS. The animals in Group A received the pure compound LK 423 in a dose of 75 mg/kg. The pure compound LK 423 was prepared as suspension in 1% gelatin (Gelatin GE0020, Scharlau) and was given orally via the tube in a volume of 1 ml.
# In Group B the animals received the microcapsules comprising LK 423 in a dose of 75 mg/kg (as prepared in Example 1). The microcapsules comprising LK 423 were given orally via the tube dispersed in 1.5 to 2 ml 1% of gelatin.
# At baseline the rats had body weight from 220 to 250 g. […] At baseline and on days 6 and 12 the body weight was recorded. For determination of the hematology parameters 1.5 ml blood samples were taken from the periorbital sinus at baseline and on day 5 of the experiment and from the abdominal aorta on day 12. The erythrocyte count and hemoglobin and hematocrit values were performed in the clinical laboratory of the Institute for Health Protection of Ruminants, Faculty of Veterinary Science. […] Throughout the experiment survival of the animals, diarrhea and occurrence of blood in the feces or the intensity of bleeding were also observed. On day 12 the animals were sacrificed under deep ether anesthesia and post-mortem examination was performed. Macroscopic changes in the ileum, caecum and in the colon and the intensity of bleeding were observed.
# At autopsy fragments of the intestine were taken from the animals and fixed in 10% formaldehyde; paraffin tissue sections were prepared and stained with hematoxylin and eosin. Pathohistological diagnosis was then performed.
# In all groups (both control groups, group A and group B) (Table 3) the tissue damage and a reaction of the surrounding tissue to the damage (level of regeneration) as well as accompanying parameters of the scope of bleeding in the mucosa, hypertrophy of the mucosa with glandular hyperplasia and the degree of epithelialization of the damage surface were assessed. The criteria were as follows:
# The Scope of Acute Bleeding with Respect to the Tissue and to the Diameter of the Field of View at 40-Fold Magnification (4 mm): • No bleeding—0 • Small bleeding in the propria and submucosa, with a diameter less than half of the field of view—1 • Moderate bleeding in the propria and submucosa, with a diameter to one half of the field of view—2 • Very extensive bleeding in the propria and submucosa with a diameter greater than half of the field of view—3 • Very extensive bleeding in the propria, submucosa, around the vessels in the tunica muscularis, tunica serosa, and in the supporting tissue—4 Regressive Process—Damage with a Defense Reaction of the Tissue: • No cellular response (no reaction) or the regressive process was no longer active—0 • Moderate cellular infiltration (monocytes, granulocytes, macrophage, histocytes) with karyorrhesis and pyknosis in the mucosa and the submucosa—1 • Severe diffuse cellular infiltration (monocytes, granulocytes, macrophage, histocytes) with karyorrhesis and pyknosis in the mucosa and the submucos—2 • Cellular infiltration (monocytes, granulocytes, macrophage, histocytes) in the demarcation line around the injury—3
smiles,measurement,setting,value
"C[C@H](NC(=O)COCCN1C(=O)c2ccccc2C1=O)C(=O)N[C@H](CCC(=O)O)C(=O)O [LK 423, N-(2-(2-phthalimidoethoxy)-acetyl)-L-alanyl-D-glutamic acid]",Blood in the feces,,+
same,Mortality,,33%
same,"Percent of bleeding animals, Caecum",,17
same,"Percent of bleeding animals, Colon",,17
same,"Percent of bleeding animals, Ileum",,17
same,"Difference of hematology values from day 0 to 12, Erythrocytes",decrease from baseline,1.25 × 10^12/l
same,"Difference of hematology values from day 0 to 12, Hematocrit",decrease from baseline,6.74%
same,"Difference of hematology values from day 0 to 12, Hemoglobin",decrease from baseline,17.2 g/l
same,Level of bleeding in the mucosa,histological score,0.6
same,"Cellular process in sacrificed animals, Epithelialization","histological score, day 12",2.37
same,"Cellular process in sacrificed animals, Hypertrophy of the mucosa","histological score, day 12",2.75
same,"Cellular process in sacrificed animals, Level of damage","histological score, day 12",1.75
same,"Cellular process in sacrificed animals, Level of regeneration","histological score, day 12",2.37
same,regeneration of damages of the intestinal mucosa compared with both control groups,pathohistology,more rapid regeneration
